Legend:
[1] = system: Glomerella lagenarium (Colletotrichum lagenarium); assay: Glomerella lagenarium (Colletotrichum lagenarium) / liquid culture (anthracnose); assay type: cell-based; conditions: Colletotrichum orbiculare, liquid culture (PDB), growth inhibition photometrically 3-4 days after application, compared to untreated control
Experimental: (§1) Example B3. Glomerella lagenarium (Colletotrichum lagenarium)/Liquid Culture (Anthracnose) Conidia of the fungus from cryogenic storage are directly mixed into nutrient broth (PDB potato dextrose broth). After placing a (DMSO) solution of test compound into a microtiter plate (96-well format), the nutrient broth containing the fungal spores is added. The test plates are incubated at 24° C. and the inhibition of growth is measured photometrically 3-4 days after application. […] […]-25, and P-26.

[2] = system: Monographella nivalis (Microdochium nivale); assay: Monographella nivalis (Microdochium nivale) / liquid culture (foot rot cereals); assay type: cell-based; conditions: liquid culture (PDB), growth inhibition photometrically 4-5 days after application, compared to untreated control
Experimental: as §1, with “B6. Monographella nivalis (Microdochium nivale)/Liquid” for “B3. Glomerella lagenarium (Colletotrichum lagenarium)/Liquid”, “(Foot Rot Cereals)” for “(Anthracnose)”, “determined” for “measured”, “4-5” for “3-4”

[3] = system: Mycosphaerella graminicola (Septoria tritici); assay: Mycosphaerella graminicola (Septoria tritici) / liquid culture (Septoria blotch); assay type: cell-based; conditions: Zymoseptoria tritici, liquid culture (PDB), growth inhibition photometrically 4-5 days after application, compared to untreated control
Experimental: Example B11. Mycosphaerella graminicola (Septoria tritici)/Liquid Culture (Septoria Blotch) Conidia of the fungus from cryogenic storage are directly mixed into nutrient broth (PDB potato dextrose broth). After placing a (DMSO) solution of test compound into a microtiter plate (96-well format), the nutrient broth containing the fungal spores is added. The test plates are incubated at 24° C. and the inhibition of growth is determined photometrically 4-5 days after application.

[4] = system: Magnaporthe grisea (Pyricularia oryzae); assay: whole plant or invertebrate; assay type: in vivo; conditions: foliar, read-out: control of Magnaporthe grisea
[5] = system: Pyrenophora teres; assay: Pyrenophora teres / barley / leaf disc preventative (net blotch); assay type: in vivo; conditions: foliar, barley leaf segments cv. Hasso, inoculated 2 days after application, compared to untreated control
Experimental: Example B10. Pyrenophora teres/Barley/Leaf Disc Preventative (Net Blotch) Barley leaf segments cv. Hasso are placed on agar in a multiwell plate (24-well format) and sprayed with the formulated test compound diluted in water. The leaf segments are inoculated with a spore suspension of the fungus 2 days after application. The inoculated leaf segments are incubated at 20° C. and 65% rh under a light regime of 12 h light/12 h darkness in a climate cabinet and the activity of a compound is assessed as disease control compared to untreated when an appropriate level of disease damage appears in untreated check leaf segments (5-7 days after application). […] […]-25, and P-26.

| Compound | inhibition of growth at 20 ppm [1] [%] | inhibition of growth at 20 ppm [2] [%] | inhibition of growth at 20 ppm [3] [%] | pest or weed control at 200 ppm [4] [%] | pest or weed control at 200 ppm [5] [%] |
| --- | --- | --- | --- | --- | --- |
| CC1(C)CCC1NC(=O)c1nc(Nc2cc(F)cc(F)c2)cc2c1OC(F)(F)O2 (stereo not drawn) [Compound P-6, 6-(3,5-difluoroanilino)-N-(2,2-dimethylcyclobutyl)-2,2-difluoro-[1,3]dioxolo[4,5-c]pyridine-4-carboxamide] | ≥ 80 | ≥ 80 | – | – | – |
| CC1Oc2cc(Nc3cc(F)cc(F)c3)nc(C(=O)NCC(C)(C)C)c2O1 (stereo not drawn) [Compound P-3, 6-(3,5-difluoroanilino)-N-(2,2-dimethylpropyl)-2-methyl-[1,3]dioxolo[4,5-c]pyridine-4-carboxamide] | ≥ 80 | – | – | – | – |
| CC(C)(C)CNC(=O)c1nc(Nc2cc(F)cc(F)c2)cc2c1OCO2 [Compound P-5, 6-(3,5-difluoroanilino)-N-(2,2-dimethylpropyl)-[1,3]dioxolo[4,5-c]pyridine-4-carboxamide] | ≥ 80 | ≥ 80 | ≥ 80 | ≥ 80 | ≥ 80 |
| CC1Oc2cc(Nc3cccc(F)c3)nc(C(=O)NCC(C)(C)C)c2O1 (stereo not drawn) [Compound P-2, N-(2,2-dimethylpropyl)-6-(3-fluoroanilino)-2-methyl-[1,3]dioxolo[4,5-c]pyridine-4-carboxamide] | ≥ 80 | – | ≥ 80 | – | – |
| CC(C)(NC(=O)c1nc(Nc2cc(F)cc(F)c2)cc2c1OCO2)c1ccccc1 [Compound P-20, 6-(3,5-difluoroanilino)-N-(1-methyl-1-phenyl-ethyl)-[1,3]dioxolo[4,5-c]pyridine-4-carboxamide] | ≥ 80 | ≥ 80 | ≥ 80 | – | – |
| CC1(C)CCC1NC(=O)c1nc(Nc2cc(F)nc(F)c2)cc2c1OCO2 (stereo not drawn) [Compound P-10, 6-[(2,6-difluoro-4-pyridyl)amino]-N-(2,2-dimethylcyclobutyl)-[1,3]dioxolo[4,5-c]pyridine-4-carboxamide] | ≥ 80 | ≥ 80 | ≥ 80 | – | – |
| CC(C)(C)CNC(=O)c1nc(Nc2cncc(F)c2)cc2c1OCO2 [Compound P-14, N-(2,2-dimethylpropyl)-6-[(5-fluoro-3-pyridyl)amino]-[1,3]dioxolo[4,5-c]pyridine-4-carboxamide] | ≥ 80 | ≥ 80 | ≥ 80 | ≥ 80 | – |
| CC1(C)CCC1NC(=O)c1nc(N(C#N)c2cc(F)cc(F)c2)cc2c1OCO2 (stereo not drawn) [Compound P-7, 6-(N-cyano-3,5-difluoro-anilino)-N-(2,2-dimethylcyclobutyl)-[1,3]dioxolo[4,5-c]pyridine-4-carboxamide] | ≥ 80 | ≥ 80 | ≥ 80 | – | – |
| CC1Oc2cc(Nc3ccccc3)nc(C(=O)NCC(C)(C)C)c2O1 (stereo not drawn) [Compound P-1, 6-anilino-N-(2,2-dimethylpropyl)-2-methyl-[1,3]dioxolo[4,5-c]pyridine-4-carboxamide] | ≥ 80 | – | – | – | – |
| CC(C)(C)CC(C)(C)NC(=O)c1nc(Nc2cc(F)cc(F)c2)cc2c1OCO2 [Compound P-17, 6-(3,5-difluoroanilino)-N-(1,1,3,3-tetramethylbutyl)-[1,3]dioxolo[4,5-c]pyridine-4-carboxamide] | – | ≥ 80 | ≥ 80 | ≥ 80 | – |
